Laboratory results: publication PMC8998618, “A Pharmacokinetic and Metabolism Study of the TRPC6 Inhibitor SH045 in Mice by LC-MS/MS” (International Journal of Molecular Sciences, 2022)
Like-named read-outs stand apart in the source and are kept apart here.

Assay: plasma pharmacokinetics after single i.v. and p.o. administration, NCA
Format: in vivo, mice
Conditions: for increase in AUCinf with 10-fold dosing / increase in cmax with 10-fold dosing: 20 vs 2 mg/kg BW; for Cmax / Tmax / AUC(0-inf) / AUC(0-t) / MRT / half-life / bioavailability / CL/F / Vd/F / AUCextra / Vz/F: plasma; for bioavailability: from AUCinf, read-out: oral bioavailability (F); for Vd/F: read-out: Vz/F
Procedure: Analysis of SH045 in samples from plasma, tissue, urine, and microsomal incubations was performed as previously described. Details are described in Supplementary Materials SM2.
Male C57BL/6 mice (25–30 g BW, Charles River, Sulzfeld, Germany) housed in groups under standard conditions and allowed access to lab chow and water ad libitum were used. The in vivo experiments were performed according to the national regulations of animal welfare and were ethically approved by the local committee on animal welfare and the local authorities. Animal experiments were performed under strict consideration of the 3R principles, fully complying with the ARRIVE guidelines. For single SH045 administration mice were assigned to four groups of 12 animals each: 2 and 20 mg/kg BW applied via the i.v. and the p.o. route, respectively. Due to the recommended limited volume for blood collection, each mouse was assigned to a maximum of five different time points each out of 8 (for p.o.) and 9 (for i.v.) for blood collection resulting in six independent plasma concentration values per time point.
SH045 was freshly prepared with DMSO (final concentration 0.5%) and Kolliphor® EL (5% in water). At 7:00 a.m., one hour before drug administration, food was removed. For oral gavage and for i.v. administration into the tail vein the respective dose was applied in a volume of 3 mL/kg BW.
Via heparin-coated catheters a maximum of 50 µL blood was collected from the tail vein at 0.25, 0.5, 1, 2, 3, 4, 6, 8, or 24 h after administration and immediately centrifuged at 4000× g at 4 °C for 10 min. For repeated administration 20 mg/kg BW SH045 were administered at 8:00 a.m. on five consecutive days, once a day. Blood was taken 1 h and 24 h after drug administration. Tissue samples were harvested from isoflurane-euthanized animals at indicated time points. Mice were transcardially perfused with PBS and dissected tissues were washed to remove remaining blood. Plasma and tissue samples were stored at −80 °C until analysis. Urine was collected by bladder puncture at indicated time points.
Pharmacokinetics parameters for SH045 were determined based on non-compartmental model analysis (NCA) using the Phoenix WinNonlin Software 8.3 (Certara, Princeton, NJ, USA). The slope of the terminal phase of the SH045 concentration-time profile (λz) was estimated as absolute values from ≥3 data points using a log-linear regression analysis. The area under the concentration-time curve (AUC) for the time (t) providing the final measurable concentration (AUClast) was calculated using the mixed log-linear trapezoidal rule (linear up, log down). The AUCinf was computed as AUClast + Clast/λz, where the estimated value of the latest data point is used. The systemic total body clearance from plasma (CLp) was calculated as applied dose divided by AUCinf. MRT was calculated as AUMCinf/AUCinf, where area under the first moment curve (AUMC) was defined as area under the curve of the product of time and the plasma drug concentration versus time from zero to infinity. Finally, the AUCextra extrapolates the AUC from the last measured time point to infinity. Vz, the apparent volume of distribution during terminal elimination phase was calculated by Vz = Dose/AUCinf × λz, where λz is the plasma elimination rate constant. The apparent volume of distribution during the terminal phase following extravascular administration based on the fraction of dose absorbed Vz/F = Dose/(AUCinf × λz). The bioavailability (F) of two oral doses SH045 doses were calculated with reference to identical doses administered by intravenous bolus application of SH045 as follows: F = AUCoral/AUCi.v. Tissue binding of SH045 was analyzed exemplarily in lung, liver and kidney homogenate using ultrafiltration. The concentration in the filtrate refers to the unbound SH045 concentration according to tissue binding (%) = (ctot − cfiltrate)/ctotal × 100. For details see Supplementary Materials SM5.

[1] = male, C57BL/6, mouse, iv, mice, single 2.0 mg/kg BW i.v.
[2] = male, C57BL/6, mouse, iv, mice, single 2.0 mg/kg BW i.v., NCA
[3] = male, C57BL/6, mouse, iv, mice, single 20 mg/kg BW i.v.
[4] = male, C57BL/6, mouse, iv, mice, single 20 mg/kg BW i.v., NCA
[5] = male, C57BL/6, mouse, po, mice, single 2.0 mg/kg BW p.o.
[6] = male, C57BL/6, mouse, po, mice, single 2.0 mg/kg BW p.o., NCA
[7] = male, C57BL/6, mouse, po, mice, single 20 mg/kg BW p.o.
[8] = male, C57BL/6, mouse, po, mice, single 20 mg/kg BW p.o., NCA
[9] = mice, single 2.0 mg/kg BW i.v., NCA
[10] = mice, single 20 mg/kg BW i.v., NCA

With `C=C[C@@](C)(O)CC[C@H]1C(=C)C[C@H](OC(=O)NC)[C@H]2C(C)(C)CCC[C@]12C` [SH045, (1S,4S,4aR,8aS)-4-((S)-3-Hydroxy-3-methylpent-4-en-1-yl)-4a,8,8-trimethyl-3-methylenedecahydronaphthalen-1-yl methylcarbamate] the “total body clearance following oral administration with regard to oral bioavailability” value (2 mg/kg p.o.) was 95 mL/min/kg, the “time up to which SH045 is measurable in plasma” value (20 mg/kg BW i.v.) was “up to 24 h” and the “corresponding drug plasma concentration” value (20 mg/kg BW i.v., corresponding to urine period 10–30 min) was 3035 nM. The “corresponding drug plasma concentration” value (20 mg/kg BW i.v., corresponding to urine period 60–80 min) was 1655 nM, the “corresponding drug plasma concentration” value (20 mg/kg BW i.v., corresponding to urine period 100–120 min) was 560 nM and the “accumulation of SH045 in plasma after repeated administration” value (20 mg/kg i.v. five times once a day, 1 and 24 h after the last injection) was “no accumulation”. The “AUCextra percentage, simulated recalculation including late low concentration values” (20 mg/kg i.v., NCA) was 0.8%, the “total body clearance following oral administration with regard to oral bioavailability” value (20 mg/kg p.o.) was 117 mL/min/kg and the “increase in AUCinf with 10-fold dosing” value (i.v.) was 8.1 fold. For the same molecule, the “increase in cmax with 10-fold dosing” value (i.v.) was 6.5 fold, the Cmax [1] was 369 ng/mL and the Tmax [1] was 15 min. For the same molecule, the AUC(0-inf) [2] was 351 ng·h/mL, the AUC(0-t) [2] was 338 ng·h/mL and the MRT [2] was 0.75 h. It also gave a half-life (male, C57BL/6, mouse, iv, mice, single 2.0 mg/kg BW i.v., NCA, read-out: t1/2 (converted)) of 76.8 min, a Cmax [3] of 2390 ng/mL and a Tmax [3] of 15 min. For the same molecule, the AUC(0-inf) [4] was 2840 ng·h/mL, the AUC(0-t) [4] was 2720 ng·h/mL and the MRT [4] was 1.52 h. For the same molecule, the half-life (male, C57BL/6, mouse, iv, mice, single 20 mg/kg BW i.v., NCA, read-out: t1/2 (converted)) was 142 min, the half-life (male, C57BL/6, mouse, intravenous, oral, range over both doses and routes, read-out: mean half-life (t1/2)) was 72 to 144 min and the bioavailability (male, C57BL/6, mouse, po, 2 mg/kg p.o.) was 24%. The bioavailability (male, C57BL/6, mouse, po, 20 mg/kg p.o.) was 11%, the Cmax [5] was 68.3 ng/mL and the Tmax [5] was 30 min. For the same molecule, the AUC(0-inf) [6] was 84.2 ng·h/mL, the AUC(0-t) [6] was 69 ng·h/mL and the MRT [6] was 1.78 h. For the same molecule, the CL/F (male, C57BL/6, mouse, po, mice, single 2.0 mg/kg BW p.o., NCA, read-out: CL/F) was 396 mL/min/kg, the Vd/F [6] was 39.5 L/kg and the half-life (male, C57BL/6, mouse, po, mice, single 2.0 mg/kg BW p.o., NCA, read-out: t1/2 (converted)) was 69 min. For the same molecule, the Cmax [7] was 341 ng/mL, the Tmax [7] was 30 min and the AUC(0-inf) [8] was 314 ng·h/mL. It also gave an AUC(0-t) [8] of 298 ng·h/mL, an MRT [8] of 1.68 h and a CL/F (male, C57BL/6, mouse, po, mice, single 20 mg/kg BW p.o., NCA, read-out: CL/F) of 1060 mL/min/kg. The Vd/F [8] was 171 L/kg, the half-life (male, C57BL/6, mouse, po, mice, single 20 mg/kg BW p.o., NCA, read-out: t1/2 (converted)) was 112 min and the AUCextra [9] was 3.7%. For the same molecule, the CL/F [9] was 94.9 mL/min/kg, the Vz/F [9] was 10.5 L/kg and the AUCextra (mice, single 2.0 mg/kg BW p.o., NCA) was 17.5%. For the same molecule, the AUCextra [10] was 4.2%, the CL/F [10] was 117.2 mL/min/kg and the Vz/F [10] was 24.0 L/kg. The AUCextra (mice, single 20 mg/kg BW p.o., NCA) was 5.0%, the F (mice, single 2.0 mg/kg BW i.v. (reference route)) was 1.0 and the F (mice, single 2.0 mg/kg BW p.o., F = AUCoral/AUCi.v.) was 0.24. For the same molecule, the F (mice, single 20 mg/kg BW i.v. (reference route)) was 1.0, the F (mice, single 20 mg/kg BW p.o., F = AUCoral/AUCi.v.) was 0.11 and the “increase in AUCinf with 10-fold dosing” value (oral) was 3.7 fold. For the same molecule, the “increase in cmax with 10-fold dosing” value (oral) was 5.0 fold and the “time up to which SH045 is measurable in plasma” value (orally) was “up to 6 h”.
